Source: US20250189533A1, “BEAD-BASED ASSAY TO SCREEN FOR INHIBITOR PROTEIN-GLYCAN INTERACTIONS IN NEURODEGENERATION” (Rensselaer Polytechnic Institute, priority 2023, published 2025)

Experiments:
[1] = target: T1, His-tagged tau / biotinylated heparin interaction (Homo sapiens, UniProt P10636); test: Bead-based ALPHA assay screening for inhibitors of tau-heparin interaction; type: binding
T1 construct: recombinant full-length tau (2N4R, as 1-441); made in house; host or cells: E. coli BL21-DE3
Excerpt: In some embodiments, the detecting portion 161 is configured to measure a fluorescent emission 164 when the at least one donor bead 110 and the at least one acceptor bead 120 are brought in proximity of one another. In some embodiments, the emitting portion 163 configured to emit a beam of light 162 at a specific wavelength onto the at least one donor bead 110. In some embodiments, the at least one donor bead 110 becomes excited at the specific wavelength, which results in a light emission by the at least one acceptor bead 120. […] In some embodiments, the ability and effectiveness of the screening molecule 150 to inhibit protein-glycan interactions is determined based on the strength of the emission 164, where inhibitors decrease the strength of the emission 164. […] In some embodiments, the user interface outputs information related to the emission 164 detected by the detecting portion 161.
At 214, the results are determined, meaning that whether or not the screening compound disrupts interactions at the protein-glycan interface is determined. In some embodiments, in the case of the screening molecule 150 being determined to disrupt interactions at the protein-glycan interface, the relative strength of the disruption may also be determined. […]

[2] = target: T2, tau (Homo sapiens, UniProt P10636); test: Heparin-induced tau aggregation; type: biochemical
T2 construct: recombinant full-length tau (2N4R, as 1-441); made in house; host or cells: E. coli BL21-DE3
T2 sequence (P10636 1-441 isoform P10636-8): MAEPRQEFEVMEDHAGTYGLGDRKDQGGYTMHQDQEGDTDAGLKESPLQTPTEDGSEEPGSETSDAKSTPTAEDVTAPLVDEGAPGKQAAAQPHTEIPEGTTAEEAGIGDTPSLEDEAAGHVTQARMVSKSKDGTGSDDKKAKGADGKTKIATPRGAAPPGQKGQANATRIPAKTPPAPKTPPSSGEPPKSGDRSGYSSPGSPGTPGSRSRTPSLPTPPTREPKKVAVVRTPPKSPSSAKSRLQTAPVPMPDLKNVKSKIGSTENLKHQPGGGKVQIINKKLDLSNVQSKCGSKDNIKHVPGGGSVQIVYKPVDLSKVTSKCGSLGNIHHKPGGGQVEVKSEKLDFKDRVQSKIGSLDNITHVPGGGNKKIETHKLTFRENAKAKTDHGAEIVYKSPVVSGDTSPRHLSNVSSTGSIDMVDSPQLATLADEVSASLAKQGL
Excerpt: (§1) Referring to FIG. 3B, in some embodiments, the screening compound 150 comprises 9-hydroxy-2-(2-piperidinylethyl) ellipticinium acetate or 6H-Pyrido [4, 9-hydroxy-5,11-dimethyl-2-[2-(1-piperidinyl)ethyl]-, acetate (A9) 300. […] A9 300 may comprise a chemical formula of C24H28N3O·C2H3O2 and a molecular weight of 434.0 g/mol. Additional analysis of A9 300 was done by performing a cell uptake assay utilizing H4 neuroglioma cells. […] In some embodiments, A9 300 is effective to disrupt tau-heparin interaction when present in a higher concentration than the concentration of tau. In some embodiments, A9 300 is effective when present in about a 100-fold molar excess relative to the tau-heparin complex.

[3] = test system: tau uptake in H4 neuroglioma cells; test: Cell uptake assay utilizing H4 neuroglioma cells; type: cell-based
Excerpt: as §1

[4] = target: T3, tau-HS interaction (heparin) (Homo sapiens, UniProt P10636); test: NMR probing of the tau-A9 interface; type: binding
T3 construct: recombinant full-length tau (2N4R, as 1-441); made in house; host or cells: E. coli BL21-DE3
T3 sequence (P10636 1-441 isoform P10636-8): as above

T1 sequence (P10636 1-441 isoform P10636-8): as above

detected fluorescent signal in screen of NCI diversity Set VI ([1]; 0.1 μM His-tau, 0.1 μM biotinylated heparin, 1 h room temperature, excitation 680 nm, emission 620 nm, lower signal = stronger inhibition): lowest detected fluorescent signal
protein-glycan inhibition, dose-dependent follow-up, ranking among the six hits ([1]; varying compound concentrations): greatest protein-glycan inhibition
Compound: CC(=O)[O-].Cc1c2cc[n+](CCN3CCCCC3)cc2c(C)c2c1[nH]c1ccc(O)cc12 [A9, 9-hydroxy-2-(2-piperidinylethyl) ellipticinium acetate]
inhibition of heparin-induced tau aggregation [2]: inhibit heparin-induced tau aggregation in a dose-dependent manner
inhibition of tau uptake [3]: inhibited tau uptake in a dose-dependent manner
mechanism of disruption of tau-HS interaction ([4]; NMR): disrupt the tau-HS interaction by occupying the glycan
region of compound that binds heparin ([4]; further analysis): aromatic region binds to heparin instead of its aliphatic carbons
